“Also recorded” adds a separate entry of the source. Read-outs that look alike come from different tables or passages of the source.
What was measured:
[1] = biological target: T1, human norepinephrine transporter (hNET) (Homo sapiens, UniProt P23975); experiment: Radioligand binding to cloned hNET, [3H]nisoxetine, HEK-293 cell membranes; details: for Kd: Geometric Mean ± SEM, HCl salts, read-out: Equilibrium Dissociation Constant (KD) for Transporter Binding, hNET (N)
T1 construct: expressed in transfected cells; host or cells: HEK-293, stably transfected
T1 sequence (P23975 whole entry): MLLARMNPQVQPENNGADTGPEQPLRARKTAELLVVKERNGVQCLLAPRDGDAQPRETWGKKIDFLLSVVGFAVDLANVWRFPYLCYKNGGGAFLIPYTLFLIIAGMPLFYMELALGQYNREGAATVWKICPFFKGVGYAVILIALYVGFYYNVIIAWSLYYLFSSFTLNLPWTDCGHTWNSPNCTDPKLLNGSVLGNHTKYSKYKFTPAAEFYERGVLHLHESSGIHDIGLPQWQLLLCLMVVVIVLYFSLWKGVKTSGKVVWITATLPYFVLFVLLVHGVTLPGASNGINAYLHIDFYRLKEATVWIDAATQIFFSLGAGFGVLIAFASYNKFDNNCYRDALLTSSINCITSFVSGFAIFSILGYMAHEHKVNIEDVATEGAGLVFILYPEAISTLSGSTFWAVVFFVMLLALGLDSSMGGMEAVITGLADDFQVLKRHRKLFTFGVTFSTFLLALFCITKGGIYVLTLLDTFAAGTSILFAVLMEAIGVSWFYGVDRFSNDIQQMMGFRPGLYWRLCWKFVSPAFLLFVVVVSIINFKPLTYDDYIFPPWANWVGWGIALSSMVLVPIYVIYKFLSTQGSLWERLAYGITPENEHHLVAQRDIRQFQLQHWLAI
Procedure: (§1) HEK-293 cells expressing the recombinant hSERT or hDAT were incubated with Dulbecco's modified Eagles medium (MEM) supplemented with 0.1 mM nonessential amino acid solution for MEM, 5% v/v fetal bovine serum and 1 U/mL penicillin/streptomycin solution. Cells expressing the hNET transporter were incubated with Dulbecco's modified Eagles medium supplemented with 10% v/v fetal bovine serum and 100 U/mL penicillin/streptomycin solution and 2 mM L-glutamine. The cells were grown until 70-80% confluent on 175 cm^2 flasks in a humidified 10% CO2/90% air environment at 37° C., with the selecting antibiotic Geneticin sulfate at 250 μg/mL. The cells were incubated in 10% CO2, 90% air at 37° C. and 100% humidity.
(§2) Cell membranes containing hSERT, hNET, or hDAT were prepared from the cell lines to assay ligand binding for each of the transporters. […] The washed cells were incubated for 5 minutes at 37° C. in 10 mL solution 1 containing 100 mM ethylene glycol-bis N,N,N′,N′-tetraacetic acid (EGTA). The cells were then scraped from the flask surface with a rubber spatula, placed into a centrifuge tube, and collected by centrifugation at 1000×g for 5 minutes at 4° C. The resulting supernatant was discarded, and the cell pellet was resuspended in 0.5 to1.0 mL of the appropriate binding buffer (described below). The resuspended cell pellet was homogenized using a Polytron for 10 seconds at setting 6. The resulting homogenate was centrifuged at about 36,000×g for 10 minutes at 4° C. The supernatant was discarded, and the pellet was resuspended in the same volume of the appropriate binding buffer and centrifuged again. The supernatant was discarded, and the final pellet containing cell membranes was resuspended in the appropriate binding buffer and stored at −80° C. until use.
To assess binding to the cloned hNET, cells expressing hNET were homogenized in 50 mM Tris-HCl with 300 mM NaCl and 5 mM KCl (pH 7.4). The binding reaction consisted of 5 μg cell membrane protein, 0.5 nM [^3H]nisoxetine (nisoxetine HCl, [N-methyl-^3H], specific activity 82.0 Ci/mmol; Amersham, Arlington Hts., Ill.), and varying concentrations of either unlabeled nisoxetine or the test compound. A reaction to determine non-specific binding consisted of 5 μg cell membrane protein, 0.5 nM [^3H]nisoxetine, and 1 μM final concentration of unlabeled nisoxetine. The reactions were incubated at 22° C. for 60 minutes. Following incubation, the reactions were terminated by rapid filtration through separate GF/B filter strips pretreated with 0.2% polyethylenimine in a 48-well Brandel cell harvester. The cell membrane-containing filter strips were then rinsed five times with ice-cold 0.9% NaCl. After rinsing, individual filters were cut from the strip and placed in a scintillation vial containing 6.5 mL of Redi-Safe (Beckman-Coulter, Fullerton, Calif.).
(§3) The program was modified to calculate the Hill coefficient (nH). Data are presented as geometric mean±S.E.M. of at least three independent experiments. One-component models and two-component models were compared using the root mean square error of each fit and the F test.

hSERT, hNET, hDAT = experiment: Human transporter binding: rank order and range of potency over the three transporters; details: for Potency (rank-order of potency of binding; S = hSERT, N = hNET, D = hDAT): from KD values; for Potency Range (difference between most potent and least potent binding): ratio of KD over hSERT, hNET, hDAT
Text: as §3

[2] = biological target: T2, human serotonin transporter (hSERT) (Homo sapiens, UniProt P31645); experiment: Radioligand binding to cloned hSERT, [3H]citalopram, HEK-293 cell membranes; details: for Kd: Geometric Mean ± SEM, HCl salts, read-out: Equilibrium Dissociation Constant (KD) for Transporter Binding, hSERT (S); for Binding at hSERT compared to PRC200-SS: in words
T2 construct: expressed in transfected cells; host or cells: HEK-293, stably transfected
T2 sequence (P31645 whole entry): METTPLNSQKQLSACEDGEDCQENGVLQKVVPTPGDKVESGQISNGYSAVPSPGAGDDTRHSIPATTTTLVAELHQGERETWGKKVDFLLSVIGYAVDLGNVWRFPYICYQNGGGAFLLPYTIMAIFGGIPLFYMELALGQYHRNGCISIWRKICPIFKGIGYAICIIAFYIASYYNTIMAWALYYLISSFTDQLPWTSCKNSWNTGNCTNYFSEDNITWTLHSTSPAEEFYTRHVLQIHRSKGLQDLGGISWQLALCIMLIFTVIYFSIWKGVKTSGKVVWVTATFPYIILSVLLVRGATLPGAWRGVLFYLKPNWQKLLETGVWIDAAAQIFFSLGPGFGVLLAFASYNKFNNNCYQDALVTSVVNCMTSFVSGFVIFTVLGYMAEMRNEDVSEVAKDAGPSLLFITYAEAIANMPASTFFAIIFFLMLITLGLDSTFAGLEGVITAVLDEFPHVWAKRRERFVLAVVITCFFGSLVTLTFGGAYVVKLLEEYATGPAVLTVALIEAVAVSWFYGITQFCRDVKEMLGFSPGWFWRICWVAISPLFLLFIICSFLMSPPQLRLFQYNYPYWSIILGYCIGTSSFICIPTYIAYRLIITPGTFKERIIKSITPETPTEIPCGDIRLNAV
Procedure: as §1, §2
Radioligand binding assays for the indicated transporters were performed as follows. To assess binding to the cloned hSERT, cells expressing hSERT were homogenized in 50 mM Tris-HCl with 120 mM NaCl and 5 mM KCl (pH 7.4). The binding reaction consisted of 10 μg cell membrane protein, […] [^3H]citalopram (citalopram, [N-methyl-^3H], specific activity 79.0 Ci/mmol; PerkinElmer, Boston, Mass.), and varying concentrations of either unlabeled citalopram or the test compound. A reaction to determine non-specific binding consisted of 10 μg cell membrane protein, 0.5 nM [^3H]citalopram, and 1 μM final concentration of unlabeled citalopram. The reactions were incubated at 22° C. for 60 minutes. Following incubation, the reactions were terminated by rapid filtration through separate GF/B filter strips pretreated with 0.2% polyethylenimine in a 48-well Brandel cell harvester. The cell membrane-containing filter strips were then rinsed five times with ice-cold 0.9% NaCl. After rinsing, individual filters were cut from the strip and placed in a scintillation vial containing 6.5 mL of Redi-Safe (Beckman-Coulter, Fullerton, Calif.).
as §3

[3] = biological target: T3, human dopamine transporter (hDAT) (Homo sapiens, UniProt Q01959); experiment: Radioligand binding to cloned hDAT, [3H]WIN35428, HEK-293 cell membranes
T3 construct: expressed in transfected cells; host or cells: HEK-293, stably transfected
T3 sequence (Q01959 whole entry): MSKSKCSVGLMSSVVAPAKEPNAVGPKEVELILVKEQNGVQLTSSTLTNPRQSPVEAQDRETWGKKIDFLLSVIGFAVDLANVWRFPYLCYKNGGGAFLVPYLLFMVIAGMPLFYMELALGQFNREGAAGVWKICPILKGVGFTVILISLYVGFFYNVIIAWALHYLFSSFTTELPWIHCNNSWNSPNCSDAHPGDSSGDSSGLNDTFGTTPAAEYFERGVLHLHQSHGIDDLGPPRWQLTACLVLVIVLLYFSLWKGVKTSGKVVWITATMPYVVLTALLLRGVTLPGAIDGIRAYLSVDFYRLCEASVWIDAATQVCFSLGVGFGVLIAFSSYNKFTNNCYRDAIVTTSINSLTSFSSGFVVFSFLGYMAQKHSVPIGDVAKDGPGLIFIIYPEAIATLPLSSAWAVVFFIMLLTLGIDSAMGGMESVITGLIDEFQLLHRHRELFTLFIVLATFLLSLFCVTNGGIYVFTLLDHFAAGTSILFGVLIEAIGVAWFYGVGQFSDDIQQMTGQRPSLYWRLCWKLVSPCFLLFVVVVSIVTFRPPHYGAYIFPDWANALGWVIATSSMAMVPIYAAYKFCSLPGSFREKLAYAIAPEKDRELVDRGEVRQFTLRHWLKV
Procedure: as §1, §2
To assess binding to the cloned hDAT, cells expressing hDAT were homogenized in 50 mM Tris-HCl with 120 mM NaCl (pH 7.4). The binding reaction contained 15 μg cell membrane protein, 1 nM [^3H]WIN35428 (WIN35428, [N-methyl-^3H], specific activity 85.9 Ci/mmol; PerkinElmer, Boston, Mass.), and varying concentrations of either unlabeled WIN35428 or the test compound. A reaction to determine non-specific binding contained 15 μg cell membrane protein, 1 nM [^3H]WIN35428, and 10 μM final concentration of unlabeled WIN35428. The reactions were incubated at 22° C. for 1 hour. Following incubation, the reactions were terminated by rapid filtration through separate GF/B filter strips pretreated with 0.2% polyethylenimine in a 48-well Brandel cell harvester. The cell membrane-containing filter strips were then rinsed five times with ice-cold 0.9% NaCl. After rinsing, individual filters were cut from the strip and placed in a scintillation vial containing 6.5 mL of Redi-Safe (Beckman-Coulter, Fullerton, Calif.).
as §3

[4] = Geometric Mean ± SEM, HCl salts, read-out: Equilibrium Dissociation Constant (KD) for Transporter Binding, hDAT (D)

Compound	Kd [1]	Potency (rank-order of potency of binding; S = hSERT, N = hNET, D = hDAT) (hSERT, hNET, hDAT)	Potency Range (difference between most potent and least potent binding) (hSERT, hNET, hDAT)	Kd [2]	Kd [3, 4]	Binding at hSERT compared to PRC200-SS [2]	Kd [3]	Binding at hNET compared to PRC200-SS ([1]; in words)	Potency (rank-order of potency of binding; S = hSERT, N = hNET, D = hDAT) (hSERT, hNET, hDAT; listed as MCJ001-NH2-cyc-SS)	Binding at hSERT compared to PRC200-SS ([2]; listed as MCJ001-NH2-cyc-SS)	Binding at hDAT compared to PRC200-SS ([3]; in words)
CNC[C@@H](c1ccc2ccccc2c1)[C@@H](N)c1ccccc1 (racemic) [MCJ001-NH2-(±)-RR, (2R,3R)-N1-methyl-2-(naphthalen-2-yl)-3-phenylpropane-1,3-diamine]	2.5 ± 0.1 nM	S > N > D	22 fold	1.27 ± 0.06 nM		greater binding at hSERT	28 ± 4 nM				
c1ccc([C@H]2OCNC[C@@H]2c2ccc3ccccc3c2)cc1 [MCJ000-OH-Cyc-SS, (5S,6S)-5-(naphthalen-2-yl)-6-phenyl-1,3-oxazinane]	99 ± 6 nM	S > D > N	41 fold	8 ± 1 nM	330 ± 50 nM						
CNC[C@@H](c1ccc2ccccc2c1)[C@@H](Cl)c1ccccc1 [MCJ001-Cl-RR, (2R,3R)-3-chloro-N-methyl-2-(naphthalen-2-yl)-3-phenylpropan-1-amine]	234 ± 5 nM	S > N > D	8.3 fold	35 ± 2 nM	290 ± 20 nM						
CNC[C@@H](c1ccc2ccccc2c1)[C@H](Cl)c1ccccc1 [MCJ001-Cl-SR, (2R,3S)-3-chloro-N-methyl-2-(naphthalen-2-yl)-3-phenylpropan-1-amine]	700 ± 50 nM	S > D > N	13 fold	55 ± 5 nM	350 ± 20 nM						
CNC[C@@H](c1ccc2ccccc2c1)[C@@H](F)c1ccccc1 [MCJ001-F-RR, (2R,3R)-3-fluoro-N-methyl-2-(naphthalen-2-yl)-3-phenylpropan-1-amine]	170 ± 10 nM	S > D > N	11 fold	16 ± 1 nM			150 ± 9 nM				
CN1CN[C@H](c2ccccc2)[C@@H](c2ccc3ccccc3c2)C1 [MCJ001-NH2-Cyc-SS, (4S,5S)-1-methyl-5-(naphthalen-2-yl)-4-phenylhexahydropyrimidine]	13 ± 1 nM	S>D>N	50 fold	0.26 ± 0.02 nM		markedly enhanced potency at binding to hSERT	7.7 ± 0.6 nM	lower potency of binding to hNET	S > D > N	greater binding at hSERT	several fold enhanced potency at binding to hDAT; also recorded: several fold more potent binding at hDAT

Further lines, with some results ahead:

Kd [1]	Potency (rank-order of potency of binding; S = hSERT, N = hNET, D = hDAT) (hSERT, hNET, hDAT)	Potency Range (difference between most potent and least potent binding) (hSERT, hNET, hDAT)	Kd [2]	Kd [3, 4]	Compound	Binding at hSERT compared to PRC200-SS [2]	Kd [3]	Binding at hNET compared to PRC200-SS ([1]; in words)	Potency (rank-order of potency of binding; S = hSERT, N = hNET, D = hDAT) (hSERT, hNET, hDAT; listed as MCJ001-NH2-cyc-SS)	Binding at hSERT compared to PRC200-SS ([2]; listed as MCJ001-NH2-cyc-SS)	Binding at hDAT compared to PRC200-SS ([3]; in words)
259 ± 5 nM	S > D > N	2.8 fold	94 ± 10 nM	240 ± 1 nM	CNC[C@H](c1ccc2ccccc2c1)[C@H](OCCCCO[C@H](c1ccccc1)[C@H](CNC)c1ccc2ccccc2c1)c1ccccc1 [MCJ001-Dimer4-SS, (2S,2′S,3S,3′S)-3,3′-(butane-1,4-diylbis(oxy))bis(N-methyl-2-(naphthalen-2-yl)-3-phenylpropan-1-amine)]						
78 ± 4 nM	N > S > D	4.9 fold	100 ± 7 nM	380 ± 30 nM	CNC[C@H](c1ccc2ccccc2c1)[C@@H](N)c1ccccc1 [MCJ001-NH2-RS, (2S,3R)-N1-methyl-2-(naphthalen-2-yl)-3-phenylpropane-1,3-diamine]						
460 ± 50 nM	D > S > N	2.6 fold	240 ± 20 nM	180 ± 20 nM	CN1CO[C@@H](c2ccccc2)[C@H](c2ccc3ccccc3c2)C1 [MCJ001-OH-Cyc-RR, (5R,6R)-3-methyl-5-(naphthalen-2-yl)-6-phenyl-1,3-oxazinane]						
